The values below come from US20230148184A1, “COMPOUNDS AND METHODS FOR MODULATING SPLICING” (REMIX THERAPEUTICS INC., priority 2020, published 2023).

A value given as a limit tells only on which side of the number the result lay.

Holding throughout (assay type): cell-based
Experiment [1] concerns HTT CJ mRNA. Description: Gene panel canonical junction qPCR assay, HTT. As to conditions: decrease in CJ mRNA levels, RT-qPCR. Here is the method:
(§1) Compounds described herein were used to modulate RNA transcript abundance in cells. The expression of a target mRNA was measured by detecting the formation of an exon-exon junction in the canonical transcript (CJ). A compound mediated exon-inclusion event was detected by observing an increase in formation of a new junction with an alternative exon (AJ). Real-time qPCR assays were used to detect these splicing switches and interrogate the potency of various compounds towards different target genes. A high-throughput real time quantitative PCR (RT-qPCR) assay was developed to measure these two isoforms of the mRNA (CJ and AJ) for an exemplary gene, HTT, together with a control housekeeping gene, GAPDH or GUSB or PPIA, used for normalization. Briefly, the A673 or K562 cell line was treated with various compounds described herein (e.g., compounds of Formula (I)). After treatment, the levels of the HTT mRNA targets were determined from each sample of cell lysate by cDNA synthesis followed by qPCR.
(§2) The A673 cell line was cultured in DMEM with 10% FBS. Cells were diluted with full growth media and plated in a 96-well plate (15,000 cells in 100 ul media per well). The plate was incubated at 37° C. with 5% CO2 for 24 hours to allow cells to adhere. An 11-point 3-fold serial dilution of the compounds was made in DMSO then diluted in media in an intermediate plate. Compounds were transferred from the intermediate plate to the cell plate with the top dose at a final concentration of 10 uM in the well. Final DMSO concentration was kept at or below 0.25%. The cell plate was returned to the incubator at 37° C. with 5% CO2 for an additional 24 hours.
(§3) The K562 cell line was cultured in IMDM with 10% FBS. For K562, cells were diluted with full growth media and plated in either a 96-well plate (50,000 cells in 50 uL media per well) or a 384-well plate (8,000-40,000 cells in 45 uL media per well). An 11-point 3-fold serial dilution of the compounds were made in DMSO then diluted in media in an intermediate plate. Compound was transferred from the intermediate plate to the cell plate with the top dose at a final concentration of 10 uM in the well. Final DMSO concentration was kept at or below 0.25%. Final volume was 100 uL for 96-well plate and 50 uL for 384-well plate. The cell plate was then placed in an incubator at 37° C. with 5% CO2 for 24 hours.
(§4) The cells were then gently washed with 50 uL-100 uL cold PBS before proceeding to addition of lysis buffer. 30 uL-50 uL of room temperature lysis buffer with DNAse I (and optionally RNAsin) was added to each well. Cells were shaken/mixed thoroughly at room temperature for 5-10 minutes for lysis to take place and then 3 uL-5 uL of room temperature stop solution was added and wells were shaken/mixed again. After 2-5 minutes, the cell lysate plate was transferred to ice for RT-qPCR reaction setup. The lysates could also be frozen at −80° C. for later use.
(§5) In some cases, a direct lysis buffer was used. An appropriate volume of 3× lysis buffer (10 mM Tris, 150 mM NaCl, 1.5%-2.5% Igepal and 0.1-1 U/uL RNAsin, pH 7.4) was directly added to either K562 or A673 cells in media and mixed by pipetting 3 times. The plates were then incubated at room temperature with shaking/rocking for 20-50 minutes to allow for lysis to take place. After this time, the cell lysate plate was transferred to ice to set up for the RT-qPCR reactions. The lysates could also be frozen at −80° C. for later use.
(§6) To set up 10 uL RT-qPCR reactions, cell lysates were transferred to 384-well qPCR plates containing the master mix according to the table below. The plates were sealed, gently vortexed, and spun down before the run. The volumes were adjusted accordingly in some instances where the reaction was carried in 20 uL. The table below summarizes the components of the RT-qPCR reactions:
(§7) The RT-qPCR reaction was performed using a QuantStudio (ThermoFisher) under the following fast cycling conditions. […]
(In general: In qPCR the cycle at which signal appears reflects the starting amount.)

In experiment [2] the test system is HTT mRNA. Description: RT-qPCR splicing assay for HTT mRNA isoforms (canonical junction CJ and alternative junction AJ). As to conditions: A673 or K562 cell line, 24 hours compound treatment; for IC50: decrease in CJ mRNA; for AC50: increase in AJ mRNA. The protocol:
as §1
Cells-to-CT 1-step kit: ThermoFisher A25602, Cells-to-CT lysis reagent: ThermoFisher 4391851C, TaqMan™ Fast Virus 1-Step Master Mix: ThermoFisher 4444436 GAPDH: VIC-PL, ThermoFisher 4326317E (Assay: Hs99999905_m1)—used for K562/suspension cell lines GUSB: VIC-PL, ThermoFisher 4326320E (Assay: Hs99999908_m1)—used for K562/suspension cell lines PPIA: VIC-PL, ThermoFisher 4326316E (Assay: Hs99999904_m1)—used for A673/adherent cell lines
as §2, §3, §4
In some cases, a direct lysis buffer was used. An appropriate volume of 3× lysis buffer (10 mM Tris, 150 mM NaCl, 1.5%-2.5% Igepal and 0.1-1 U/uL RNAsin, pH 7.4) was directly added to either K562 or A673 cells in media and mixed by pipetting 3 times. The plates were then incubated at room temperature with shaking/rocking for 20-50 minutes to allow for lysis to take place. After this time, the cell lysate plate was transferred to ice to set up for the RT-qPCR reactions. The lysates could also be frozen at −80° C. for later use. […]

Experiment [3] concerns Target C CJ mRNA. Description: Gene panel canonical junction qPCR assay, Target C. As to conditions: decrease in CJ mRNA levels, RT-qPCR. The protocol:
as §1, §2, §3, §4, §5, §6, §7

The test system of experiment [4] is SMN2 CJ mRNA. Description: Gene panel canonical junction qPCR assay, SMN2. The note with it: decrease in CJ mRNA levels, RT-qPCR. The protocol: as §1, §2, §3, §4, §5, §6, §7

As a reminder, the IC50 is the concentration needed to halve the response being measured. Broadly, the AC50 is the midpoint of the concentration-response curve, whichever way the signal moves. Read a low AC50 as greater potency. Regarding `c1cc2c(cc1N[C@@H]1C[C@H]3CC[C@@H](C1)N3)CCOc1cc(-c3cn[nH]c3)ccc1-2` [Compound 132, N-[5-(1H-pyrazol-4-yl)-8-oxatricyclo[9.4.0.0^[2,7]]pentadeca-1(11),2(7),3,5,12,14-hexaen-13-yl]-8-azabicyclo [3.2.1] octan-3-amine], the IC50 in experiment [1], in experiment [2] and in experiment [3] was > 10 µM in each case. For the same molecule, the AC50 in experiment [2] is > 10 µM.

`CC1(C)CC(N(c2ccc3c(n2)OCc2cc(-n4cccn4)ccc2-3)C2CC2)CC(C)(C)N1` [Compound 204]: in experiment [2], the half-inhibitory concentration (IC50) was 1 to 10 µM and the concentration at half-maximal activity (AC50) is > 10 µM.

On to `CN(c1ccc2c(n1)COc1cc(-n3cccn3)ccc1-2)[C@@H]1C[C@H]2CC[C@@H](C1)N2` [Compound 109], for which, in experiment [2], the IC50 lay in the range of 0.1 to 1 µM and the AC50 fell in the range of 0.1 to 1 µM.

Take `CN(c1ccc2c(c1)CCOc1cc(-c3cn[nH]c3)ccc1-2)[C@@H]1C[C@H]2CC[C@@H](C1)N2` [Compound 112]: the 50% inhibitory concentration (IC50) in experiment [3] is > 10 µM.

In experiment [2], `Cc1cnc(-c2ccc3c(c2)COc2nc(N(C)[C@@H]4C[C@H]5CC[C@@H](C4)N5)ccc2-3)o1` [Compound 206] returned a concentration for half-maximal inhibition (IC50) of 0.1 to 1 µM and a concentration at half-maximal activity (AC50) of 0.1 to 1 µM.

As for `CN(c1ccc2c(c1)CCOc1cc(-n3cccn3)ccc1-2)[C@@H]1C[C@H]2CC[C@@H](C1)N2` [Compound 138, (1R,3S,5S)—N-methyl-N-[5-(pyrazol-1-yl)-8-oxatricyclo[9.4.0.0^[2,7]]pentadeca-1(11),2(7), 3,5,12,14-hexaen-13-yl]-8-azabicyclo [3.2.1] octan-3-amine], the IC50 in experiment [1], in experiment [2] and in experiment [3] was 1 to 10 µM in each case. In experiment [2], the AC50 was in the range of 1 to 10 µM.

`CN(c1ccc2c(n1)CCOc1cc(-n3cccn3)ccc1-2)[C@@H]1C[C@H]2CC[C@@H](C1)N2` [Compound 128, N-[(1R,3S,5S)-8-azabicyclo[3.2.1]octan-3-yl]-N-methyl-13-(pyrazol-1-yl)-10-oxa-6-azatricyclo[9.4.0.0^[2,7]]pentadeca-1(11),2(7),3,5,12,14-hexaen-5-amine]: the IC50 in experiment [1], in experiment [2] and in experiment [3] was > 10 µM in each case. Moreover, the half-maximal activity concentration (AC50) in experiment [2] was > 10 µM.

In experiment [2], `c1cnn(-c2ccc3c(c2)COc2nc(N(C4CC4)[C@@H]4C[C@H]5CC[C@@H](C4)N5)ccc2-3)c1` [Compound 205] showed a half-maximal inhibitory concentration (IC50) of 1 to 10 µM and a concentration at half-maximal activity (AC50) of 0.1 to 1 µM.

Regarding `CC1(C)CC(Nc2ccc3c(n2)CCOc2cc(-c4cn[nH]c4)ccc2-3)CC(C)(C)N1` [Compound 141, 13-(1H-pyrazol-4-yl)-N-(2,2,6,6-tetramethylpiperidin-4-yl)-10-oxa-6-azatricyclo[9.4.0.0^[2,7]]pentadeca-1(11),2(7),3,5,12,14-hexaen-5-amine], the half-maximal inhibitory concentration (IC50) was > 10 µM in experiment [1], > 10 µM in experiment [2] and 1 to 10 µM in experiment [3]. For the same molecule, the AC50 in experiment [2] is > 10 µM.

In the case of `C[C@H]1C[C@H](N(C)c2ccc3c(c2)OCc2cc(-c4cn[nH]c4)ccc2-3)CCN1` [Compound 102, (2S,4R)—N,2-dimethyl-N-[8-(1H-pyrazol-4-yl)-6H-benzo[c]chromen-3-yl]piperidin-4-amine], the 50% inhibitory concentration (IC50) in experiment [1], in experiment [2] and in experiment [3] was > 10 µM throughout. For the same molecule, the concentration at half-maximal activity (AC50) in experiment [2] is > 10 µM.

With `CC1(C)CC(Nc2ccc3c(c2)COc2cc(-n4cccn4)ccc2-3)CC(C)(C)N1` [Compound 118, 2,2,6,6-tetramethyl-N-[3-(pyrazol-1-yl)-6H-benzo[c]chromen-8-yl]piperidin-4-amine], the IC50 in experiment [4], in experiment [1] and in experiment [2] was > 10 µM throughout. Moreover, the half-maximal activity concentration (AC50) in experiment [2] was > 10 µM.

With `c1cnn(-c2ccc3c(c2)OCc2cc(N[C@@H]4C[C@H]5CC[C@@H](C4)N5)ccc2-3)c1` [Compound 119], the IC50 was > 10 µM in experiment [1], > 10 µM in experiment [2] and 1 to 10 µM in experiment [3]. Besides, the AC50 in experiment [2] is > 10 µM.

As for `CN(c1ccc2c(c1)COc1cc(-n3cccn3)ccc1-2)C1CC(C)(C)NC(C)(C)C1` [Compound 117, N,2,2,6,6-pentamethyl-N-[3-(pyrazol-1-yl)-6H-benzo[c]chromen-8-yl]piperidin-4-amine], the IC50 in experiment [4], in experiment [1] and in experiment [2] was > 10 µM throughout. For the same molecule, the half-maximal activity concentration (AC50) in experiment [2] was > 10 µM.

`CN(c1ccc2c(c1)OCc1cc(-c3cn[nH]c3)ccc1-2)[C@@H]1C[C@H]2CC[C@@H](C1)N2` [Compound 104, (1R,3S,5S)—N-Methyl-N-[8-(1H-pyrazol-4-yl)-6H-benzo[c]chromen-3-yl]-8-azabicyclo[3.2.1]octan-3-amine]: the IC50 in experiment [1], in experiment [2] and in experiment [3] was > 10 µM each time. Further, the concentration at half-maximal activity (AC50) in experiment [2] was > 10 µM.

Take `CN(c1ccc2c(n1)CCOc1cc(-c3cn[nH]c3)ccc1-2)[C@@H]1C[C@H]2CC[C@@H](C1)N2` [Compound 127, N-[(1R,3S,5S)-8-azabicyclo[3.2.1]octan-3-yl]-N-methyl-13-(1H-pyrazol-4-yl)-10-oxa-6-azatricyclo[9.4.0.0^[2,7]]pentadeca-1(11),2(7),3,5,12,14-hexaen-5-amine]: the concentration for half-maximal inhibition (IC50) in experiment [4], in experiment [1] and in experiment [2] was > 10 µM throughout. In experiment [2], the AC50 was > 10 µM.

Consider `C[C@@H]1C[C@H](N(C)c2ccc3c(c2)OCc2cc(-c4cn[nH]c4)ccc2-3)CCN1` [Compound 101, (2R,4R)—N,2-dimethyl-N-[8-(1H-pyrazol-4-yl)-6H-benzo[c]chromen-3-yl] piperidin-4-amine], for which the AC50 in experiment [2] is > 10 µM. Moreover, the IC50 in experiment [3] was > 10 µM.

As for `CN(c1ccc2c(n1)CCOc1cc(-c3cn[nH]c3)ccc1-2)C1CC(C)(C)NC(C)(C)C1` [Compound 114, N-methyl-13-(1H-pyrazol-4-yl)-N-(2,2,6,6-tetramethylpiperidin-4-yl)-10-oxa-6-azatricyclo[9.4.0.0^[2,7]]pentadeca-1(11),2(7),3,5,12,14-hexaen-5-amine], the IC50 in experiment [1] was 0.1 to 1 µM; in experiment [2], 0.1 to 1 µM; in experiment [3], < 0.1 µM. Besides, in experiment [2], the AC50 is < 0.1 µM.

With `c1cnn(-c2ccc3c(c2)COc2nc(N(C4CC4)[C@@H]4C[C@H]5CCC[C@@H](C4)N5)ccc2-3)c1` [Compound 203], in experiment [2], the IC50 was 1 to 10 µM and the AC50 was 1 to 10 µM.
